Measurements: patent US20260226068A1, “IMIDAZOTRIAZINE IL-17A MODULATORS AND USES THEREOF” (DICE ALPHA, INC., priority 2023, published 2026)

How the values were obtained:
IL-17A/F = biological target: T1, IL-17A/F (Homo sapiens, UniProt Q16552+Q96PD4); test: IL-17A/F HEK-Blue cell assay (SEAP reporter); format: cell-based; settings: HEK-Blue IL-17A reporter cells, IL17A/F 5 ng/mL, 20 hours, SEAP read at A630; read-out: HEK-Blue IL17AF (IC50 for IL-17A/F inhibition)
T1 construct: purchased R&D Systems
T1 sequence (Q16552 24-155): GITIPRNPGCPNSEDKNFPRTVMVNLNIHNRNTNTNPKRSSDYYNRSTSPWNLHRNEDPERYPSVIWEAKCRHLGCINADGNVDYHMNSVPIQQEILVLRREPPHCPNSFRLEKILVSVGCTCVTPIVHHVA
T1 sequence (Q96PD4 31-163): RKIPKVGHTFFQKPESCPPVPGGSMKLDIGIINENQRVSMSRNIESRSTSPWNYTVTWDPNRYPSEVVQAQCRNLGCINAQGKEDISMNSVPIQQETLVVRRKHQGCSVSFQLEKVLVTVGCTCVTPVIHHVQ

IL-17A/A = biological target: T2, IL-17A/A (Homo sapiens, UniProt Q16552); test: IL-17A/A HEK-Blue cell assay (SEAP reporter); format: cell-based; settings: HEK-Blue IL-17A reporter cells, IL17A/A 5 ng/mL, 20 hours, SEAP read at A630; read-out: HEK-Blue IL17AA (IC50 for IL-17A/A inhibition)
T2 construct: purchased Genscript Z03228
T2 sequence (Q16552 24-155): T1 sequence (Q16552 24-155)

In the case of `CC(C)n1nccc1C(=O)N[C@H](c1cn2nc(CC3C[C@H](C(F)(F)F)CNC3=O)cnc2n1)C1CCC(F)(F)CC1` (stereo partly drawn) [Compound 15, N—((S)-(4,4-difluorocyclohexyl)(2-(((5S)-2-oxo-5-(trifluoromethyl)piperidin-3-yl)methyl)imidazo[1,2-b][1,2,4]triazin-6-yl)methyl)-1-isopropyl-1H-pyrazole-5-carboxamide], the IC50 (IL-17A/F) is reported as over 1 µM and the IC50 (IL-17A/A) is reported as 0.1 to 1 µM.

`O=C(N[C@H](c1cn2nc(CC3C[C@H](C(F)(F)F)CNC3=O)cnc2n1)C1CCC(F)(F)CC1)c1nonc1C1CC1` (stereo partly drawn) [Compound 16, 4-cyclopropyl-N—((S)-(4,4-difluorocyclohexyl)(2-(((5S)-2-oxo-5-(trifluoromethyl)piperidin-3-yl)methyl)imidazo[1,2-b][1,2,4]triazin-6-yl)methyl)-1,2,5-oxadiazole-3-carboxamide] showed an IC50 (IL-17A/F) of over 1 µM and an IC50 (IL-17A/A) of 0.1 to 1 µM.

`CCn1nccc1C(=O)N[C@H](c1cn2nc(CC3C[C@@H](C(F)(F)F)CNC3=O)cnc2n1)C1CCC(F)(F)CC1` (stereo partly shown) [Compound 24] gave an IC50 (IL-17A/F) of over 1 µM and an IC50 (IL-17A/A) of 0.1 to 1 µM.

In the case of `CCn1nccc1C(=O)N[C@H](c1cn2nc(C[C@@H]3C[C@@H](C(F)(F)F)CNC3=O)cnc2n1)[C@H]1CC[C@H](C)CC1` [Compound 25], the IC50 (IL-17A/F) is reported as over 1 µM and the IC50 (IL-17A/A) is reported as 0.1 to 1 µM.

Work on `CCn1nccc1C(=O)N[C@H](c1cn2nc(C[C@H]3C[C@@H](C(F)(F)F)CNC3=O)cnc2n1)[C@H]1CC[C@H](C)CC1` [Compound 26] yielded an IC50 (IL-17A/F) of over 1 µM and an IC50 (IL-17A/A) of under 0.1 µM.

Work on `CCn1nccc1C(=O)N[C@H](c1cn2nc(C[C@H]3C[C@@H](C(F)(F)F)CNC3=O)cnc2n1)C1CCC(F)(F)CC1` [Compound 27] yielded an IC50 (IL-17A/F) of over 1 µM and an IC50 (IL-17A/A) of under 0.1 µM.

`CCn1nccc1C(=O)N[C@H](c1cn2nc(C[C@@H]3C[C@@H](C(F)(F)F)CNC3=O)cnc2n1)C1CCC(F)(F)CC1` [Compound 28] showed an IC50 (IL-17A/F) of over 1 µM and an IC50 (IL-17A/A) of 0.1 to 1 µM.

`CCn1nccc1C(=O)N[C@H](c1cn2nc(C[C@H]3C[C@@H](C(F)(F)F)CNC3=O)cnc2n1)C(C1CC1)C1CC1` [Compound 29, N—((S)-2,2-dicyclopropyl-1-(2-(((3R,5R)-2-oxo-5-(trifluoromethyl)piperidin-3-yl)methyl)imidazo[1,2-b][1,2,4]triazin-6-yl)ethyl)-1-ethyl-1H-pyrazole-5-carboxamide] was tested, and the IC50 (IL-17A/F) was over 1 µM and the IC50 (IL-17A/A) was under 0.1 µM.

In the case of `CCn1nccc1C(=O)N[C@H](c1cn2nc(C[C@H]3C[C@@H](C(F)(F)F)CNC3=O)cnc2n1)[C@H]1CCCC(F)(F)C1` [Compound 30, N—((S)—((S)-3,3-difluorocyclohexyl)(2-(((3R,5R)-2-oxo-5-(trifluoromethyl)piperidin-3-yl)methyl)imidazo[1,2-b][1,2,4]triazin-6-yl)methyl)-1-ethyl-1H-pyrazole-5-carboxamide], the IC50 (IL-17A/F) is reported as over 1 µM and the IC50 (IL-17A/A) is reported as under 0.1 µM.

`CC(C)c1nocc1C(=O)N[C@H](c1cn2nc(C[C@H]3C[C@@H](C(F)(F)F)CNC3=O)cnc2n1)C1CCC(F)(F)CC1` [Compound 32] showed an IC50 (IL-17A/F) of over 1 µM and an IC50 (IL-17A/A) of 0.1 to 1 µM.

`CC(C)n1nccc1C(=O)N[C@H](c1cn2nc(C[C@H]3C[C@@H](C(F)(F)F)CNC3=O)cnc2n1)C1CCC(F)(F)CC1` [Compound 34] gave an IC50 (IL-17A/F) of over 1 µM and an IC50 (IL-17A/A) of under 0.1 µM.

`CCc1nonc1C(=O)N[C@H](c1cn2nc(C[C@H]3C[C@@H](C(F)(F)F)CNC3=O)cnc2n1)C1CCC(F)(F)CC1` [Compound 35] gave an IC50 (IL-17A/F) of over 1 µM and an IC50 (IL-17A/A) of 0.1 to 1 µM.

Work on `Cn1nccc1C(=O)N[C@H](c1cn2nc(C[C@H]3C[C@@H](C(F)(F)F)CNC3=O)cnc2n1)C1CCC(F)(F)CC1` [Compound 36] yielded an IC50 (IL-17A/F) of over 1 µM and an IC50 (IL-17A/A) of 0.1 to 1 µM.

In the case of `CC(C)c1nonc1C(=O)N[C@H](c1cn2nc(C[C@H]3C[C@@H](C(F)(F)F)CNC3=O)cnc2n1)C1CCC(F)(F)CC1` [Compound 37], the IC50 (IL-17A/F) is reported as over 1 µM and the IC50 (IL-17A/A) is reported as under 0.1 µM.

`O=C(N[C@H](c1cn2nc(C[C@H]3C[C@@H](C(F)(F)F)CNC3=O)cnc2n1)C1CCC(F)(F)CC1)c1conc1C1CC1` [Compound 38] showed an IC50 (IL-17A/F) of over 1 µM and an IC50 (IL-17A/A) of 0.1 to 1 µM.

In the case of `O=C(N[C@H](c1cn2nc(C[C@H]3C[C@@H](C(F)(F)F)CNC3=O)cnc2n1)C(C1CC1)C1CC1)c1nonc1C1CC1` [Compound 39, 4-cyclopropyl-N—((S)-2,2-dicyclopropyl-1-(2-(((3R,5R)-2-oxo-5-(trifluoromethyl)piperidin-3-yl)methyl)imidazo[1,2-b][1,2,4]triazin-6-yl)ethyl)-1,2,5-oxadiazole-3-carboxamide], the IC50 (IL-17A/F) is reported as over 1 µM and the IC50 (IL-17A/A) is reported as under 0.1 µM.

`O=C(N[C@H](c1cn2nc(C[C@H]3C[C@@H](C(F)(F)F)CNC3=O)cnc2n1)C1CCC(F)(F)CC1)c1conc1CCF` [Compound 40] gave an IC50 (IL-17A/F) of over 1 µM and an IC50 (IL-17A/A) of 0.1 to 1 µM.

With `CC(C)n1nccc1C(=O)N[C@H](c1cn2nc(C[C@H]3C[C@H](C(F)(F)F)CNC3=O)cnc2n1)C1CCC(F)(F)CC1` [Compound 41] the IC50 (IL-17A/F) was over 1 µM and the IC50 (IL-17A/A) was 0.1 to 1 µM.

In the case of `O=C(N[C@H](c1cn2nc(C[C@H]3C[C@@H](C(F)(F)F)CNC3=O)cnc2n1)C1CCC(F)(F)CC1)c1conc1C(F)(F)F` [Compound 42], the IC50 (IL-17A/F) is reported as over 1 µM and the IC50 (IL-17A/A) is reported as 0.1 to 1 µM.

Compound `O=C(N[C@H](c1cn2nc(C[C@H]3C[C@@H](C(F)(F)F)CNC3=O)cnc2n1)C1CCC(F)(F)CC1)c1nonc1C1CC1` [Compound 43] has an IC50 (IL-17A/F) of over 1 µM and an IC50 (IL-17A/A) of under 0.1 µM.

`CCn1nccc1C(=O)N[C@H](c1cn2nc(C[C@H]3C[C@@H](C(F)(F)F)CNC3=O)c(N3CCOCC3)nc2n1)C1CCC(F)(F)CC1` [Compound 46] gave an IC50 (IL-17A/F) of 0.1 to 1 µM and an IC50 (IL-17A/A) of under 0.1 µM.

Work on `CCn1nccc1C(=O)N[C@H](c1cn2nc(CC3C[C@@H](C(F)(F)F)CNC3=O)c(N3CCOCC3)nc2n1)C1CCC(F)(F)CC1` (stereo partly shown) [Compound 47] yielded an IC50 (IL-17A/F) of over 1 µM and an IC50 (IL-17A/A) of under 0.1 µM.

For `O=C(N[C@H](c1cn2nc(C[C@H]3C[C@H](C(F)(F)F)CNC3=O)cnc2n1)C1CCC(F)(F)CC1)c1nonc1C1CC1` [Compound 53], the IC50 (IL-17A/F) was over 1 µM and the IC50 (IL-17A/A) was 0.1 to 1 µM.

In the case of `O=C(N[C@H](c1cn2nc(CC3C[C@@H](C(F)(F)F)CNC3=O)c(N3CCOCC3)nc2n1)C1CCC(F)(F)CC1)c1nonc1C1CC1` (stereo partly shown) [Compound 57], the IC50 (IL-17A/F) is reported as over 1 µM and the IC50 (IL-17A/A) is reported as under 0.1 µM.

For `CCn1nccc1C(=O)N[C@H](c1cn2nc(CC3C[C@@H](C(F)(F)F)CNC3=O)c(N3CCOCC3)nc2n1)[C@H]1CC[C@H](C)CC1` (stereo partly shown) [Compound 58], the IC50 (IL-17A/F) was 0.1 to 1 µM and the IC50 (IL-17A/A) was under 0.1 µM.

`CCn1nccc1C(=O)N[C@H](c1cn2nc(CC3C[C@@H](C(F)(F)F)CNC3=O)c(N3CCOCC3)nc2n1)[C@H]1CC[C@H](C)CC1` (stereo partly shown) [Compound 59] showed an IC50 (IL-17A/F) of over 1 µM and an IC50 (IL-17A/A) of under 0.1 µM.

Compound `CC[C@@H](c1ccc(F)cc1)[C@H](NC(=O)c1ccnn1CC)c1cn2nc(C[C@H]3C[C@@H](C(F)(F)F)CNC3=O)cnc2n1` [Compound 60, 1-ethyl-N-((1S,2S)-2-(4-fluorophenyl)-1-(2-(((3R,5R)-2-oxo-5-(trifluoromethyl)piperidin-3-yl)methyl)imidazo[1,2-b][1,2,4]triazin-6-yl)butyl)-1H-pyrazole-5-carboxamide] has an IC50 (IL-17A/F) of over 1 µM and an IC50 (IL-17A/A) of under 0.1 µM.

`CCn1nccc1C(=O)N[C@H](c1cn2nc(C[C@H]3C[C@@H](C(F)(F)F)CNC3=O)c(C3CCOCC3)nc2n1)[C@H]1CCCC(F)(F)C1` [Compound 66, N—((S)—((S)-3,3-difluorocyclohexyl)(2-(((3R,5R)-2-oxo-5-(trifluoromethyl)piperidin-3-yl)methyl)-3-(tetrahydro-2H-pyran-4-yl)imidazo[1,2-b][1,2,4]triazin-6-yl)methyl)-1-ethyl-11H-pyrazole-5-carboxamide] gave an IC50 (IL-17A/F) of under 0.1 µM and an IC50 (IL-17A/A) of under 0.1 µM.

With `CCn1nccc1C(=O)N[C@H](c1cn2nc(C[C@H]3C[C@@H](C(F)(F)F)CNC3=O)c(C3CCOCC3)nc2n1)[C@@H]1CCCC(F)(F)C1` [Compound 67, N—((S)—((R)-3,3-difluorocyclohexyl)(2-(((3R,5R)-2-oxo-5-(trifluoromethyl)piperidin-3-yl)methyl)-3-(tetrahydro-2H-pyran-4-yl)imidazo[1,2-b][1,2,4]triazin-6-yl)methyl)-1-ethyl-1H-pyrazole-5-carboxamide] the IC50 (IL-17A/F) was under 0.1 µM and the IC50 (IL-17A/A) was under 0.1 µM.

`CCn1nccc1C(=O)N[C@H](c1cn2nc(C[C@H]3C[C@@H](C(F)(F)F)CNC3=O)c(C3CCOCC3)nc2n1)[C@H]1CC[C@H](C)CC1` [Compound 78, 1-ethyl-N-((1S)-((1r,4S)-4-methylcyclohexyl)(2-(((3R,5R)-2-oxo-5-(trifluoromethyl)piperidin-3-yl)methyl)-3-(tetrahydro-2H-pyran-4-yl)imidazo[1,2-b][1,2,4]triazin-6-yl)methyl)-1H-pyrazole-5-carboxamide] gave an IC50 (IL-17A/F) of under 0.1 µM and an IC50 (IL-17A/A) of under 0.1 µM.

`CCn1nccc1C(=O)N[C@H](c1cn2nc(C[C@H]3C[C@@H](C(F)(F)F)CNC3=O)c(C(C)C)nc2n1)C1CCC(F)(F)CC1` [Compound 87, N-((1S)-(4,4-difluorocyclohexyl)(3-isopropyl-2-(((3R,5R)-2-oxo-5-(trifluoromethyl)piperidin-3-yl)methyl)imidazo[1,2-b][1,2,4]triazin-6-yl)methyl)-1-ethyl-1H-pyrazole-5-carboxamide] gave an IC50 (IL-17A/F) of 0.1 to 1 µM and an IC50 (IL-17A/A) of under 0.1 µM.

For `CCn1nccc1C(=O)N[C@H](c1cn2nc(C[C@H]3C[C@@H](C(F)(F)F)CNC3=O)c(C(C)C)nc2n1)[C@H]1CC[C@H](C)CC1` [Compound 110, 1-ethyl-N-((1S)-(3-isopropyl-2-(((3R,5R)-2-oxo-5-(trifluoromethyl)piperidin-3-yl)methyl)imidazo[1,2-b][1,2,4]triazin-6-yl)((1r,4S)-4-methylcyclohexyl)methyl)-1H-pyrazole-5-carboxamide], the IC50 (IL-17A/F) was 0.1 to 1 µM and the IC50 (IL-17A/A) was under 0.1 µM.
